# Data: patent US8952024B2, “Herbicidal pyrimidone derivatives” (E I du Pont de Nemours and Company, priority 2009, dated 2015)
# Where two headings read alike, the source gives them in different places.
# How the values were obtained:
# Experiment in all cases: Test B pre-/postemergence plant response
# Format in all cases: in vivo
# [1] = tested on: downy bromegrass (Bromus tectorum); details: for pest or weed control at 31 g/ha: 31 g ai/ha; for pest or weed control at 62 g/ha: 62 g ai/ha
# Text: (§1) Seeds of plant species selected from blackgrass (Alopecurus myosuroides), downy bromegrass (Bromus tectorum), green foxtail (Setaria viridis), Italian ryegrass (Lolium multiflorum), wheat (Triticum aestivum), wild oat (Avena fatua), deadnettle (henbit deadnettle, Lamium amplexicaule), galium (catchweed bedstraw, Galium aparine), bermudagrass (Cynodon dactylon), Surinam grass (Brachiaria decumbens), cocklebur (Xanthium strumarium), corn (Zea mays), large crabgrass (Digitaria sanguinalis), woolly cupgrass (Eriochloa villosa), giant foxtail (Setaria faberii), goosegrass (Eleusine indica), johnsongrass (Sorghum halepense), kochia (Kochia scoparia), lambsquarters (Chenopodium album), morningglory (Ipomoea coccinea), nightshade (eastern black nightshade, Solanum ptycanthum), yellow nutsedge (Cyperus esculentus), pigweed (Amaranthus retroflexus), ragweed (common ragweed, Ambrosia elatior), Russian thistle (Salsola kali), soybean (Glycine max), sunflower (common oilseed sunflower, Helianthus annuus) and velvetleaf (Abutilon theophrasti) were planted into a blend of loam soil and sand and treated preemergence with test compounds formulated in a non-phytotoxic solvent mixture which included a surfactant.
# (§2) At the same time, plants selected from these crop and weed species and also winter barley (Hordeum vulgare), canarygrass (Phalaris minor), chickweed (Stellaria media) and windgrass (Apera spica-venti) were planted in pots containing Redi-Earth® planting medium (Scotts Company, 14111 Scottslawn Road, Marysville, Ohio 43041) comprising spaghnum peat moss, vermiculite, wetting agent and starter nutrients and treated with postemergence applications of some of the test chemicals formulated in the same manner. Plants ranged in height from 2 to 18 cm (1- to 4-leaf stage) for postemergence treatments.
# (§3) Treated plants and controls were maintained in a greenhouse for 13 to 15 days, after which time all treated plants were visually evaluated and compared to controls. Plant response ratings, summarized in Table B, are based on a scale of 0 to 100 where 0 is no effect and 100 is complete control. A dash (-) response means no test result.
# [2] = tested on: giant foxtail (Setaria faberii); details: for pest or weed control at 16 g/ha: 16 g ai/ha; for pest or weed control at 16 g/ha / pest or weed control at 31 g/ha / pest or weed control at 62 g/ha: read-out: Plant response rating, Foxtail, Giant; for pest or weed control at 31 g/ha: 31 g ai/ha; for pest or weed control at 62 g/ha: 62 g ai/ha
# Text: as §1, §2, §3
# [3] = tested on: goosegrass (Eleusine indica); details: for pest or weed control at 16 g/ha: 16 g ai/ha; for pest or weed control at 16 g/ha / pest or weed control at 31 g/ha / pest or weed control at 62 g/ha: read-out: Plant response rating, Goosegrass; for pest or weed control at 31 g/ha: 31 g ai/ha; for pest or weed control at 62 g/ha: 62 g ai/ha
# Text: as §1, §2, §3
# [4] = tested on: green foxtail (Setaria viridis); details: for pest or weed control at 16 g/ha: 16 g ai/ha; for pest or weed control at 16 g/ha / pest or weed control at 31 g/ha / pest or weed control at 62 g/ha: read-out: Plant response rating, Foxtail, Green; for pest or weed control at 31 g/ha: 31 g ai/ha; for pest or weed control at 62 g/ha: 62 g ai/ha
# Text: as §1, §2, §3
# [5] = tested on: johnsongrass (Sorghum halepense); details: 0 to 100 scale
# Text: as §1, §2, §3
# [6] = Preemergence, 125 g ai/ha, 0 to 100 scale
# [7] = Setaria faberi, pre-emergence, Preemergence, scale 0 to 100 (0 no effect, 100 complete control)
# [8] = Eleusine indica, pre-emergence, Preemergence, scale 0 to 100 (0 no effect, 100 complete control)
# [9] = Setaria viridis, pre-emergence, Preemergence, scale 0 to 100 (0 no effect, 100 complete control)
smiles,measurement,setting,value
"O=C1CCCC(O)=C1C(=O)c1cnc(-c2ccccc2)n(-c2ccccc2)c1=O [Compound 2, 5-[(2-hydroxy-6-oxo-1-cyclohexen-1-yl)carbonyl]-2,3-diphenyl-4(3H)-pyrimidinone]",pest or weed control at 31 g/ha,"[1]; Bromus tectorum, post-emergence, Postemergence, scale 0 to 100 (0 no effect, 100 complete control), read-out: Plant response rating, Bromegrass, Downy",35%
same,pest or weed control at 62 g/ha,"[1]; Bromus tectorum, post-emergence, Postemergence, scale 0 (no effect) to 100 (complete control), 13 to 15 days, read-out: Plant response rating, Bromegrass, Downy",60%
same,pest or weed control at 125 g/ha,"[1]; Bromus tectorum, post-emergence, Postemergence, 125 g ai/ha, visual rating after 13 to 15 days, scale 0 (no effect) to 100 (complete control)",80%
same,pest or weed control at 16 g/ha,"[1]; Bromus tectorum, pre-emergence, Preemergence, 16 g ai/ha, scale 0 to 100 (0 no effect, 100 complete control), read-out: Plant response rating, Bromegrass, Downy",0%
same,pest or weed control at 31 g/ha,"[1]; Bromus tectorum, pre-emergence, Preemergence, scale 0 to 100 (0 no effect, 100 complete control), read-out: Plant response rating, Bromegrass, Downy",0%
same,pest or weed control at 62 g/ha,"[1]; Bromus tectorum, pre-emergence, Preemergence, scale 0 to 100, 0 no effect, 100 complete control, read-out: Plant response rating, Bromegrass, Downy",0%
same,"Bromegrass, Downy plant response rating",[1]; [6],5
same,"Foxtail, Giant plant response rating",[2]; [6],70
same,pest or weed control at 16 g/ha,"[2]; Setaria faberi, post-emergence, Postemergence, 0 to 100 scale",70%
same,pest or weed control at 31 g/ha,"[2]; Setaria faberi, post-emergence, Postemergence, scale 0 to 100 (0 no effect, 100 complete control)",85%
same,pest or weed control at 62 g/ha,"[2]; Setaria faberi, post-emergence, Postemergence, scale 0 (no effect) to 100 (complete control), 13 to 15 days",85%
same,pest or weed control at 125 g/ha,"[2]; Setaria faberi, post-emergence, Postemergence, 125 g ai/ha, visual rating after 13 to 15 days, scale 0 (no effect) to 100 (complete control)",85%
same,pest or weed control at 16 g/ha,[2]; [7],0%
same,pest or weed control at 31 g/ha,[2]; [7],15%
same,pest or weed control at 62 g/ha,"[2]; Setaria faberi, pre-emergence, Preemergence, scale 0 to 100, 0 no effect, 100 complete control",20%
same,pest or weed control at 16 g/ha,"[3]; Eleusine indica, post-emergence, Postemergence, 0 to 100 scale",80%
same,pest or weed control at 31 g/ha,"[3]; Eleusine indica, post-emergence, Postemergence, scale 0 to 100 (0 no effect, 100 complete control)",80%
same,pest or weed control at 62 g/ha,"[3]; Eleusine indica, post-emergence, Postemergence, scale 0 (no effect) to 100 (complete control), 13 to 15 days",90%
same,pest or weed control at 125 g/ha,"[3]; Eleusine indica, post-emergence, Postemergence, 125 g ai/ha, visual rating after 13 to 15 days, scale 0 (no effect) to 100 (complete control)",95%
same,pest or weed control at 16 g/ha,[3]; [8],0%
same,pest or weed control at 31 g/ha,[3]; [8],85%
same,pest or weed control at 62 g/ha,"[3]; Eleusine indica, pre-emergence, Preemergence, scale 0 to 100, 0 no effect, 100 complete control",100%
same,Goosegrass plant response rating,[3]; [6],100
same,"Foxtail, Green plant response rating",[4]; [6],60
same,pest or weed control at 16 g/ha,"[4]; Setaria viridis, post-emergence, Postemergence, 0 to 100 scale",50%
same,pest or weed control at 31 g/ha,"[4]; Setaria viridis, post-emergence, Postemergence, scale 0 to 100 (0 no effect, 100 complete control)",75%
same,pest or weed control at 62 g/ha,"[4]; Setaria viridis, post-emergence, Postemergence, scale 0 (no effect) to 100 (complete control), 13 to 15 days",90%
same,pest or weed control at 125 g/ha,"[4]; Setaria viridis, post-emergence, Postemergence, 125 g ai/ha, visual rating after 13 to 15 days, scale 0 (no effect) to 100 (complete control)",100%
same,pest or weed control at 16 g/ha,[4]; [9],0%
same,pest or weed control at 31 g/ha,[4]; [9],0%
same,pest or weed control at 62 g/ha,"[4]; Setaria viridis, pre-emergence, Preemergence, scale 0 to 100, 0 no effect, 100 complete control",5%
same,Johnsongrass plant response rating,"[5]; Preemergence, 125 g ai/ha",80
same,pest or weed control at 16 g/ha,"[5]; Sorghum halepense, post-emergence, 16 g ai/ha, Postemergence, read-out: Plant response rating, Johnsongrass",75%
